Source: US12060347B2 (BRISTOL-MYERS SQUIBB COMPANY, priority 2016, dated 2024)

Biological target: T1, human PAR4 (Homo sapiens, UniProt Q96RI0)
T1 construct: expressed in transfected cells; host or cells: HEK293 PAR4 Clone 1.2A (BMS Arctic ID 383940)
T1 sequence (Q96RI0 18-385): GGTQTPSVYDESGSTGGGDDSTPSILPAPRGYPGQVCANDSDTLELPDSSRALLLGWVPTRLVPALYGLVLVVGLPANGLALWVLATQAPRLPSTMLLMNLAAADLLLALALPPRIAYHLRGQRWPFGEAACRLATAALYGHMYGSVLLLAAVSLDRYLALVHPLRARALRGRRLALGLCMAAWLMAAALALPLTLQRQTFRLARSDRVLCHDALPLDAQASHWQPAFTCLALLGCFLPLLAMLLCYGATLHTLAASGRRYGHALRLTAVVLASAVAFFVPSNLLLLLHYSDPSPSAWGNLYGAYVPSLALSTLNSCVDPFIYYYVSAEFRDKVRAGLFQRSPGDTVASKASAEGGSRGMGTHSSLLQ
Test: PAR4 FLIPR assay: antagonism of agonist-peptide-induced calcium mobilization in PAR4-expressing HEK293 cells
Type: cell-based
Details: H-Ala-Phe(4-F)-[…]NH2-induced intracellular calcium mobilization, 11-point curves

Structure (SMILES) | IC50
COc1ccc2[nH]c(-c3cc(C)cc4nc(OC(F)F)cnc34)nc2c1 [Example 50, 2-(difluoromethoxy)-5-(5-methoxy-1H-benzo[d]imidazol-2-yl)-7-methylquinoxaline] | 92 nM
COCCOc1ccc2nc(-c3cc(C)cc4nc(OC)cnc34)sc2c1 [Example 77, 2-(2-methoxy-7-methylquinoxalin-5-yl)-6-(2-methoxyethoxy)benzo[d]thiazole] | 130 nM
COc1cnc2c(-c3nc4c(C)cc(OCCNS(=O)(=O)c5ccc(F)cc5)cc4s3)cc(Cl)cc2n1 [Example 199, N-(2-((2-(7-chloro-2-methoxyquinoxalin-5-yl)-4-methylbenzo[d]thiazol-6-yl)oxy)ethyl)-4-fluorobenzenesulfonamide] | 2.5 nM
COC(=O)NCCOc1ccc2oc(-c3cc(C)cc4nc(OC(F)F)cnc34)cc2c1 [Example 46, methyl 2-(2-(2-(difluoromethoxy)-7-methylquinoxalin-5-yl)benzofuran-5-yloxy)ethylcarbamate] | 17 nM
COCc1cnc2c(-c3nc4c(C)cc(OCCNS(=O)(=O)c5ccccc5)cc4s3)cc(C)cc2n1 [Example 95, N-(2-((2-(2-(methoxymethyl)-7-methylquinoxalin-5-yl)-4-methylbenzo[d]thiazol-6-yl)oxy)ethyl)benzenesulfonamide] | 0.8 nM
COc1cnc2c(-c3nc4cc(F)c(OCC(COCC(C)C)OC(=O)Nc5cnc(C)nc5)cc4s3)cc(C)cc2n1 (racemic) [Example 525, 1-((5-fluoro-2-(2-methoxy-7-methylquinoxalin-5-yl)benzo[d]thiazol-6-yl)oxy)-3-isobutoxypropan-2-yl (2-methylpyrimidin-5-yl)carbamate (rac)] | 2.3 nM

Next, values leading:

IC50 | Structure (SMILES)
2 nM | CCOc1cnc2c(-c3nc4cc(F)c(O[C@@H](C)[C@@H](C)OC(=O)Nc5cnc(C)nc5)cc4s3)cc(C)cc2c1 [Example 660, (2R,3S)-3-((2-(3-ethoxy-6-methylquinolin-8-yl)-5-fluorobenzo[d]thiazol-6-yl)oxy)butan-2-yl (2-methylpyrimidin-5-yl)carbamate]
1.5 nM | COCc1cnc2c(-c3nc4c(F)cc(OC)cc4s3)cc(C)cc2n1 [Example 254, 4-fluoro-6-methoxy-2-(2-(methoxymethyl)-7-methylquinoxalin-5-yl)benzo[d]thiazole]
0.9 nM | COc1cnc2c(-c3nc4cc(F)c(O[C@@H](C)[C@@H](C)OC(=O)Nc5ccnc(C(=O)NCCC(C)(C)O)c5)cc4s3)cc(C)cc2n1 [Example 459, (2R,3S)-3-((5-fluoro-2-(2-methoxy-7-methylquinoxalin-5-yl)benzo[d]thiazol-6-yl)oxy)butan-2-yl (2-((3-hydroxy-3-methylbutyl)carbamoyl)pyridin-4-yl)carbamate]
160 nM | COCc1cnc2c(-c3nc4c(C)cc(OCCNS(=O)(=O)c5ccc(F)cc5)cc4s3)cc(C(=O)N3CCCCC3)cc2n1 [Example 227, 4-fluoro-N-(2-((2-(2-(methoxymethyl)-7-(piperidine-1-carbonyl)quinoxalin-5-yl)-4-methylbenzo[d]thiazol-6-yl)oxy)ethyl)benzenesulfonamide]
5.4 nM | COc1cnc2c(-c3nc4cc(F)c(O[C@@H](C)[C@@H](C)OC(=O)Nc5ccc(C(=O)N6CCOCC6)nc5)cc4s3)cc(C)cc2n1 [Example 426, (2R,3S)-3-((5-fluoro-2-(2-methoxy-7-methylquinoxalin-5-yl)benzo[d]thiazol-6-yl)oxy)butan-2-yl (6-(morpholine-4-carbonyl)pyridin-3-yl)carbamate]
7 nM | COc1cc(C(O)C2CCOCC2)c2nc(-c3cc(C)cc4nc(OC)cnc34)sc2c1 (stereo not drawn) [Example 663, (6-methoxy-2-(2-methoxy-7-methylquinoxalin-5-yl)benzo[d]thiazol-4-yl)(tetrahydro-2H-pyran-4-yl)methanol]
